Results reported in patent publication US20260347372A1, “SMALL MOLECULE INHIBITORS OF KRAS G12D MUTANT” (MERCK SHARP & DOHME LLC, priority 2023, published 2026).

Tests used:
KRAS WT = KRAS WT (Homo sapiens, UniProt P01116); test: SOS-catalyzed nucleotide exchange assay, KRAS WT (Procedure A); assay type: biochemical; settings: GNE
Description: (§1) Procedure for SOS-Catalyzed Nucleotide Exchange Assay for KRAS-WT, G12C/D/V, G13D, HRAS, and NRAS (Procedure A)
(§2) Recombinant KRAS-G12C protein used in this assay has an additional triple mutation (C51S/C80L/C118S). Whereas KRAS-WT, G12D/V, G13D, HRAS and NRAS are in context of their WT protein sequence background. Specifically, the SOS-catalyzed nucleotide exchange assay utilizes a preformed TR-FRET complex containing a specific biotinylated RAS protein (KRAS-WT, G12C/V/D, G13D, HRAS, NRAS; described above) with Bodipy-GDP, and Terbium-streptavidin. Compounds are preincubated with this complex for 60 minutes. Subsequently, recombinant human SOS protein and unlabeled GTP are added to initiate the exchange reaction. Small molecule inhibitors stabilize the Bodipy-GDP complex whereas the untreated protein rapidly exchanges Bodipy-GDP for unlabeled GTP resulting in reduced TR-FRET signal.
(§3) To assemble the preformed TR-FRET complexes, each biotinylated RAS protein is diluted to 2 μM in an EDTA Buffer (20 mM HEPES pH 7.5, 50 mM sodium chloride, 10 mM EDTA, and 0.01% Tween) and incubated at room temperature for one hour. This mixture is then further diluted to 90 nM in an Assay Buffer (20 mM HEPES pH 7.5, 150 mM sodium chloride, 10 mM magnesium chloride, and 0.005% Tween) containing 15 nM of Terbium-Streptavidin (Invitrogen, catalog #PV3577) and 900 nM of Bodipy-GDP (Invitrogen, catalog #G22360) and incubated at room temperature for six hours. It should be noted that this preformed TR-FRET complex for each of the RAS protein were made ahead of time, aliquoted and stored at −80° C. until the day of the experiment.
(§4) Each test compound (10 mM stock in DMSO) is diluted in DMSO to make a final-10-point, 3-fold dilution and is acoustically dispensed into a 384-well assay plate (Corning, catalog #3820) using an Echo 550 (Labcyte). Each well of the assay plate receives 3 μL of a specific 3×RAS preformed TR-FRET complex and 3 μL of Assay Buffer and is incubated at room temperature for 60 minutes (preincubation time). Each well then receives 3 μL of 3× recombinant human SOS protein and GTP (Sigma, G8877) in Assay Buffer and is incubated at room temperature for 30 minutes (G13D), 60 minutes (KRAS WT/G12C/D, H/NRAS) or 90 minutes for G12V. The final reaction in each well of 9 μL consists of 3 mM GTP, specific Ras and SOS proteins in the following concentrations: KRAS-G12C/SOS=3 nM/40 nM, KRAS-WT and G12D/SOS=1 nM/40 nM, KRAS-G12V/SOS=1.25 nM/160 nM, KRAS-G13D/SOS=1.25 nM/0 nM, HRAS and NRAS=1.25 nM/40 nM.
(§5) The time-resolved fluorescence resonance energy transfer (TR-FRET) signal is measured on an Envision (PerkinElmer) plate reader: Excitation filter=340 nm; emission1=495 nm; emission2=520 nm; dichroic mirror=D400/D505; delay time=[…]. The signal of each well is determined as the ratio of the emission at 520 nm to that at 495 nm. Percent effect of each well is determined after normalization to control wells containing DMSO (no effect) or a saturating concentration of inhibitor (max effect). The apparent effect as a function of compound concentration is fit to a four-parameter logistic equation.
(§6) For Example No. 14, nucleotide exchange assays for KRAS G12D, WT, G12C, and G12V were performed according to Procedure B. All the other compounds were tested according to Procedure A.

KRAS G12V = KRAS G12V (Homo sapiens, UniProt P01116, G12V); test: SOS-catalyzed nucleotide exchange assay, KRAS G12V (Procedure A); assay type: biochemical; settings: GNE
Description: as §1, §2, §3, §4, §5, §6

KRAS G12D = KRAS G12D (Homo sapiens, UniProt P01116, G12D); test: SOS-catalyzed nucleotide exchange assay, KRAS G12D (Procedure A); assay type: biochemical; settings: guanine nucleotide exchange (GNE)
Description: as §1, §2, §3, §4, §5, §6

AsPC-1 cells = molecular target: T1, AsPC-1 cells (Homo sapiens, UniProt P01116, G12D); test: Cellular phospho-ERK assay, AsPC-1 cells (KRAS G12D); assay type: cell-based; settings: 2 hours, read-out: AsPC1 pERK IC50
T1 construct: p-ERK/total ERK AlphaSureFire read-out
Description: Procedure for Cellular Phospho-ERK Assay in KRAS Wild Type and Mutant (G12D, G12V) Cell Lines
PANC08.13 cells (ATCC® CRL-2551™), containing homozygous KRAS-G12D activating mutation, were cultured in growth medium made of RPMI1640-GlutaMAX™-I (ThermoFisher Scientific 61870) containing 15% heat inactivated fetal bovine serum (ThermoFisher Scientific 10091148)). AsPC-1 cells (ATCC® CRL-1682™), containing homozygous KRAS-G12D activating mutation, were cultured in T150 flask in growth medium (RPMI medium 1640-GlutaMAX™-I (ThermoFisher Scientific 61870) containing 10% fetal bovine serum (ThermoFisher Scientific 10091148)).
Cells for the assay were harvested in growth medium after TrypLE (ThermoFisher scientific 12604021) digestion and were seeded in a 384-well collagen coated cell culture plate (Corning 356702) at a density of 10,000-15,000 cells/20 μL/well, and incubated at 37° C., 5% CO2 overnight. The compound (with 10 mM stock concentration) dose-response titrations were prepared [30 μM final ERK detection assay concentration and 1:3 dilutions, 10-point dose response] and appropriate amounts (270 nL) of test compounds were dispensed in a 384-well intermediate plate using an Echo 550 liquid handler. 30 μL/well of RPMI medium 1640-GlutaMAX™-I was added to the intermediate plate and the contents of the intermediate plate (10 μL/well) were then transferred to the 384-well collagen coated cell culture plate, which was incubated at 37° C., 5% CO2 for 2 hours. After removal of medium from the collagen coated cell culture plate, cells were lysed in lysis buffer from Alpha SureFire® Ultra™ Multiplex p-ERK and total ERK assay kit (PerkinElmer MPSU-PTERK) containing Halt™ Protease and Phosphatase inhibitor cocktail (ThermoFisher Scientific 78446) at room temperature with constant shaking at 300 rpm for 30 minutes. The cell lysates were then transferred to an OptiPlate-384 plate (PerkinElmer 6005620), and the phosphorylation of ERK (p-ERK) and total ERK levels were detected by Alpha SureFire® Ultra™ Multiplex p-EEK kit and total ERK assay kit (PerkinElmer MPSU-PTERK) following the manufacturer's protocol. Assay plates were read on a EnVision Multimode Plate Reader (PerkinElmer), and the ratio of p-ERK vs. total ERK in each well was used as the final readout. Dose response curves were analyzed using a 4-parameter logistic model to calculate IC50 values using Spotfire software.

Chain of KRAS G12V (P01116 with tags, fused parts or gaps isoform P01116-2 G12V): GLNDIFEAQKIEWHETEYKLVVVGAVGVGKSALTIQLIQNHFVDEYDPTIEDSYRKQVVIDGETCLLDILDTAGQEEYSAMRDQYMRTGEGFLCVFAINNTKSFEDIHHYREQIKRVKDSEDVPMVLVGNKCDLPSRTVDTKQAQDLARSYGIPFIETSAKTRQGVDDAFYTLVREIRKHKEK
Chain of KRAS G12D (P01116 with tags, fused parts or gaps isoform P01116-2 G12D): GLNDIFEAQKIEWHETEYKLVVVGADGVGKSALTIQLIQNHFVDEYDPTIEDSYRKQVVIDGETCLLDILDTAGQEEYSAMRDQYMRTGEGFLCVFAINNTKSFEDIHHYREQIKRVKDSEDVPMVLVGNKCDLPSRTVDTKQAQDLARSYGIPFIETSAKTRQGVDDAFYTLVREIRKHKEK
Chain of KRAS WT (P01116 with tags, fused parts or gaps isoform P01116-2): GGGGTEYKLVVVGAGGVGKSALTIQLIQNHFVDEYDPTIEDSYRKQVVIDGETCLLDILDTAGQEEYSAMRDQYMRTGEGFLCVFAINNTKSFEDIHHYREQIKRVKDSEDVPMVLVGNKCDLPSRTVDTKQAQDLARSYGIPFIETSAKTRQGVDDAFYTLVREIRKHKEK
T1 sequence (P01116 1-188 isoform P01116-2 G12D): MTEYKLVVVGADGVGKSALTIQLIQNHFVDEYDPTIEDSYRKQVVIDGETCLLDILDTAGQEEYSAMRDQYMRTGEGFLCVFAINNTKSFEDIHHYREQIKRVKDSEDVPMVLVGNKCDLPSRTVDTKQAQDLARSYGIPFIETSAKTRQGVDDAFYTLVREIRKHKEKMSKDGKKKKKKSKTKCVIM

Row | IC50 (KRAS WT) [nM] | IC50 (KRAS G12V) [nM] | IC50 (KRAS G12D) [nM] | IC50 (AsPC-1 cells) [nM] | Compound
1 | 4810 | 4490 | 12.3 | 612 | F[C@H]1CN2CCC[C@@]2(COc2nc(N3C[C@H]4CC[C@@H](C3)N4)c3c(n2)sc2c(-c4c(C5(F)CC5)c(C(F)(F)F)cc5[nH]ncc45)nccc23)C1 [Ex-79, 4-((1R,5S)-3,8-diazabicyclo[3.2.1]octan-3-yl)-8-(5-(1-fluorocyclopropyl)-6-(trifluoromethyl)-1H-indazol-4-yl)-2-(((2R,7aS)-2-fluorotetrahydro-1H-pyrrolizin-7a(5H)-yl)methoxy)pyrido[4′,3′:4,5]thieno[2,3-d]pyrimidine]
2 | 706 | 734 | 3.57 | 411 | F[C@H]1CN2CCC[C@@]2(COc2nc(N3C[C@H]4CC[C@@H](C3)N4)c3c(n2)sc2c(-c4c(C5CC5)c(C(F)(F)F)cc5[nH]ncc45)nccc23)C1 [Ex-80, 4-((1R,5S)-3,8-diazabicyclo [3.2.1]octan-3-yl)-8-(5-cyclopropyl-6-(trifluoromethyl)-1H-indazol-4-yl)-2-(((2R,7aS)-2-fluorotetrahydro-1H-pyrrolizin-7a(5H)-yl)methoxy)pyrido [4′,3′:4,5]thieno [2,3-d]pyrimi-dine]
3 | > 11100 | > 11100 | 575 | 6800 | Cc1cc2[nH]ncc2c(-c2nccc3c2sc2nc(N4CCCN(C)CC4C)nc(N4C[C@H]5CC[C@@H](C4)N5)c23)c1C(F)(F)F (stereo partly drawn) [Ex-81, 4-((1R,5S)-3,8-diazabicyclo[3.2.1]octan-3-yl)-2-(2,4-dimethyl-1,4-diazepan-1-yl)-8-(6-methyl-5-(trifluoromethyl)-1H-indazol-4-yl)pyrido[4′,3′:4,5]thieno[2,3-d]pyrimidine]
4 | 12.5 | 16.2 | 1.93 | 6.29 | C#Cc1c(F)sc2cc3[nH]ncc3c(-c3nccc4c3sc3nc(OC[C@@]56CCCN5C[C@H](F)C6)nc(N5C[C@H]6CC[C@@H](C5)N6)c34)c12 [Ex-82, 4-((1R,5S)-3,8-diazabicyclo[3.2.1]oc-tan-3-yl)-8-(5-ethynyl-6-fluoro-1H-thieno[3,2-f]indazol-4-yl)-2-(((2R,7aS)-2-fluorotetrahydro-1H-pyrrolizin-7a(5H)-yl)methoxy)pyri-do[4′,3′:4,5]thi-eno[2,3-d]pyrimidine]
5 | 430 | 704 | 1.43 | 42.5 | C#Cc1csc2cc3[nH]ncc3c(-c3nccc4c3sc3nc(OC[C@]5(CN6CC7(C6)CC(F)(F)C7)CC5(F)F)nc(N5C[C@H]6CC[C@@H](C5)N6)c34)c12 [Ex-83, 4-((1R,5S)-3,8-diazabicyclo[3.2.1]octan-3-yl)-2-(((R)-1-((6,6-difluoro-2-azaspiro[3.3]heptan-2-yl)methyl)-2,2-difluorocyclopropyl)methoxy)-8-(5-ethynyl-1H-thieno[3,2-f]indazol-4-yl)pyrido[4′,3′:4,5]thieno[2,3-d]pyrimidine]
6 | > 11100 | > 11100 | 111 | 2940 | C#Cc1csc2cc3[nH]ncc3c(-c3nccc4c3sc3nc(OCC5(C#N)CCOCC5)nc(N5C[C@H]6CC[C@@H](C5)N6)c34)c12 [Ex-84, 4-(((4-((1R,5S)-3,8-diazabicyclo[3.2.1]oc-tan-3-yl)-8-(5-ethynyl-1H-thieno[3,2-f]indazol-4-yl)pyrido[4′,3′:4,5]thi-eno[2,3-d]pyrimi-din-2-yl)oxy)methyl)tetrahydro-2H-pyran-4-carbonitrile]
7 | 32.1 | 28.2 | 2.06 | 8.52 | C#Cc1csc2cc3[nH]ncc3c(-c3nccc4c3sc3nc(OC[C@@]56CCCN5C/C(=C\F)C6)nc(N5C[C@H]6CC[C@@H](C5)N6)c34)c12 [Ex-85, 4-((1R,5S)-3,8-diazabicyclo[3.2.1]octan-3-yl)-8-(5-ethynyl-1H-thieno[3,2-f]indazol-4-yl)-2-(((S,Z)-2-(fluoromethylene)tetrahydro-1H-pyrrolizin-7a(5H)-yl)methoxy)pyrido[4′,3′:4,5]thieno[2,3-d]pyrimidine]
8 | 542 | 1240 | 3.31 | 54.6 | C#Cc1cc(F)cc2cc3[nH]ncc3c(-c3nccc4c3sc3nc(OC[C@@]56CCCN5C[C@H](F)C6)nc(N5C[C@H]6CC[C@@H](C5)N6)c34)c12 [Ex-86, 4-((1R,5S)-3,8-diazabicyclo[3.2.1]octan-3-yl)-8-(5-ethynyl-7-fluoro-1H-benzo[f]indazol-4-yl)-2-(((2R,7aS)-2-fluorotetrahydro-1H-pyrrolizin-7a(5H)-yl)methoxy)pyrido[4′,3′:4,5]thieno[2,3-d]pyrimidine]
9 | 467 | 412 | 3.58 | 86.3 | CCc1c(F)ccc2cc3[nH]ncc3c(-c3nccc4c3sc3nc(OC[C@@]56CCCN5C[C@H](F)C6)nc(N5C[C@H]6CC[C@@H](C5)N6)c34)c12 [Ex-87, 4-((1R,5S)-3,8-diazabicyclo[3.2.1]octan-3-yl)-8-(5-ethyl-6-fluoro-1H-benzo[f]indazol-4-yl)-2-(((2R,7aS)-2-fluorotetrahydro-1H-pyrrolizin-7a(5H)-yl)methoxy)pyrido[4′,3′:4,5]thieno[2,3-d]pyrimidine]
10 | 743 | 1780 | 100 | 368 | C#Cc1c(F)ccc2cc3[nH]ncc3c(-c3nccc4c3sc3nc(OC[C@@]56CCCN5C[C@H](F)C6)nc(N5C[C@H]6CC[C@@H](C5)N6CCCC#N)c34)c12 [Ex-88, 4-((1R,5S)-3-(8-(5-ethynyl-6-fluoro-1H-benzo[f]indazol-4-yl)-2-(((2R,7aS)-2-fluorotetrahydro-1H-pyrrolizin-7a(5H)-yl)methoxy)pyrido[4′,3′:4,5]thieno[2,3-d]pyrimidin-4-yl)-3,8-diazabicyclo[3.2.1]octan-8-yl)butanenitrile]
